Activity calls are given as the source filed them.
Legend:
Cytochrome P450 2C19 = Cytochrome P450 2C19 (Homo sapiens, UniProt P33261); test: Cytochrome panel assay with activity outcomes. Panel member name: p450-cyp2c19 Compounds with AC50 equal or less than 10 uM are considered active; type: functional
[1] = target: Luciferin 4-monooxygenase (Photinus pyralis, UniProt P08659); test: inhibition of purified Photinus pyralis luciferase – biochemical, luminescence, dose response (AID 1891)
[2] = Luminescence Cell-Based Dose Retest to Confirm Inhibitors of Cancer Stem Cells. [Related pubchem assays (depositor defined):AID2717, AID2721]; type: functional; conditions: Homo sapiens
[3] = Luminescence Cell-Based Dose Confirmation HTS to Identify Inhibitors of Platelet Dense Granule Release. [Related pubchem assays: 1663 (Primary HTS), 1678 (Summary of Project)]; type: functional
Cytochrome P450 1A2 = target: T1, Cytochrome P450 1A2 (Homo sapiens, UniProt P05177);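 also: PubChem cytochrome P450 panel assay, CYP1A2 panel member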
T1 sequence (P05177 whole entry): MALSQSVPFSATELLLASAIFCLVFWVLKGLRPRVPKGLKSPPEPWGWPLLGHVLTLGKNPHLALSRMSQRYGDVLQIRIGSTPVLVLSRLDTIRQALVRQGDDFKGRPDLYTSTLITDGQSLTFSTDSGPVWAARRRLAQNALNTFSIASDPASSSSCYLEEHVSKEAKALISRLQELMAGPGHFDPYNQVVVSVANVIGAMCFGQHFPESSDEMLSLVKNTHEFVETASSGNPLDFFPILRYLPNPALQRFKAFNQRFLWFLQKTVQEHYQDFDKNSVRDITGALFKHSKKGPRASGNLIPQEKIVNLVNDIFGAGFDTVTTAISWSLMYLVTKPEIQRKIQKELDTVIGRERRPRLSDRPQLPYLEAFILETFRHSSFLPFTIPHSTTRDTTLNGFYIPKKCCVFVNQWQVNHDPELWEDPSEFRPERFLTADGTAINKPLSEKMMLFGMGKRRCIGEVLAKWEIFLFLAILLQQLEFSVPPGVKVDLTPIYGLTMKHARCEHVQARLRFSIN

Streptokinase A = target: T2, Streptokinase A (Streptococcus pyogenes serotype M1, UniProt P10520); test: viability-normalized secreted streptokinase activity reduction – plasminogen activation absorbance, OD405, dose response (AID 1914); type: functional, Streptococcus pyogenes M1 GAS;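 also: secreted streptokinase activity via plasminogen activation per viability signal from cell pellet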
T2 sequence (P10520 whole entry): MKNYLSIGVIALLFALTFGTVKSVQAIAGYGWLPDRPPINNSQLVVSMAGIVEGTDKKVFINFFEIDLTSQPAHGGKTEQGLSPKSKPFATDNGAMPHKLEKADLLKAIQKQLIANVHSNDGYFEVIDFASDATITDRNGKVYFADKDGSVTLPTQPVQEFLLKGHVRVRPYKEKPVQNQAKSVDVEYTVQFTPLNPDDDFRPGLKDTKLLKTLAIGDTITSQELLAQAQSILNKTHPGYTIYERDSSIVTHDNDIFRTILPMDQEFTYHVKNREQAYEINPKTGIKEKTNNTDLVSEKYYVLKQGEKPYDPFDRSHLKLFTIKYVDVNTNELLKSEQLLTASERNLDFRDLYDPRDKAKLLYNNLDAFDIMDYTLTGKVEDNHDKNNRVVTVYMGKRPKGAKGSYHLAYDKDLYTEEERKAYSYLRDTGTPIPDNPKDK

[4] = system: Streptococcus sp. 'group A'; test: Streptococcus pyogenes SK(-)GAS viability under kanamycin – luminescence, BacTiterGlo, confirmation, counter-screen for streptokinase expression inhibitor project, dose response (AID 1900); type: functional, organism-based
Streptococcus = test: GAS UMAA2166 growth inhibition – luminescence, BacTiterGlo, counter-screen for streptokinase expression inhibitor project, dose response (AID 1915); type: functional, organism-based;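 also: potency for reduction of bacterial viability or growth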
Cytochrome P450 3A4 = Cytochrome P450 3A4 (Homo sapiens, UniProt P08684);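 also: CYP3A4 tested as one member of a cytochrome P450 panel screen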
Sequence of Cytochrome P450 3A4 (P08684 whole entry): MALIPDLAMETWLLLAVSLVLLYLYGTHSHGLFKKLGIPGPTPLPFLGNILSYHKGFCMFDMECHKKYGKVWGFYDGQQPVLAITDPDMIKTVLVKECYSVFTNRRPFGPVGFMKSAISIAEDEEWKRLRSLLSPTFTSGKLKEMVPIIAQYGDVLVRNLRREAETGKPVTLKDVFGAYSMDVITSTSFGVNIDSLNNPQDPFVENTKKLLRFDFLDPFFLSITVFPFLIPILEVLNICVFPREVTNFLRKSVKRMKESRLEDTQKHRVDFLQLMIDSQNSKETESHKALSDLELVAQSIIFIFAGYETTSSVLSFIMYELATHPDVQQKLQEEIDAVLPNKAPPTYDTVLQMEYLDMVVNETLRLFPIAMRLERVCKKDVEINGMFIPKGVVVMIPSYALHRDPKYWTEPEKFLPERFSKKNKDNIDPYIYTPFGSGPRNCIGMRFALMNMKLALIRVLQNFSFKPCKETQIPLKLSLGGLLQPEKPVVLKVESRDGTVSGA

[5] = target: T3, Corticotropin-releasing factor receptor 2/Corticotropin-releasing factor-binding protein (Homo sapiens, UniProt P24387+Q13324); test: activators of CRF receptor 2 with binding protein – uHTS hits, confirmation (AID 602473); type: functional; conditions: read-out: EC50_Mean
T3 sequence (Q13324 whole entry): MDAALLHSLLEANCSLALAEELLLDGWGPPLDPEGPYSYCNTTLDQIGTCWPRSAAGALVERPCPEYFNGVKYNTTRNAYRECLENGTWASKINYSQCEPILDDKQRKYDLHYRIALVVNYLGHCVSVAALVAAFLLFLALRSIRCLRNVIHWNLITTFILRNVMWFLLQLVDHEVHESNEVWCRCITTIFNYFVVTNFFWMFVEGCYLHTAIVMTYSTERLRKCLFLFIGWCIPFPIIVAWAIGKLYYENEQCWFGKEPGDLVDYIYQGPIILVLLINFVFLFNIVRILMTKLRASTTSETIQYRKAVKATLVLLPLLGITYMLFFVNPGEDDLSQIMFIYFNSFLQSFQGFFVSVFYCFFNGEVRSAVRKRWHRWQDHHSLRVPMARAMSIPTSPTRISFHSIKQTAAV
T3 sequence (P24387 whole entry): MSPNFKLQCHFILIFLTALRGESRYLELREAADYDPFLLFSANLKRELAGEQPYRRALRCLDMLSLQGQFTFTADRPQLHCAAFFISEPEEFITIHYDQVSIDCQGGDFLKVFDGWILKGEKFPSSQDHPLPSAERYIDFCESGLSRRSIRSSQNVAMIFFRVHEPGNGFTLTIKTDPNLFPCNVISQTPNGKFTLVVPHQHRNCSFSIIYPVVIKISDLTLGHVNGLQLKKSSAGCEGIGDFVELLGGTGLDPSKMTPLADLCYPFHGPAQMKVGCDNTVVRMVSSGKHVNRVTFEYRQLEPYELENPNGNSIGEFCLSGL

[6] = target: T3, Corticotropin-releasing factor receptor 2/Corticotropin-releasing factor-binding protein; test: Dose Response confirmation of uHTS hits for small molecule antagonists of the CRF-binding protein and CRF-R2 receptor complex.; type: functional; conditions: read-out: IC50_Mean
Cytochrome P450 2D6 = Cytochrome P450 2D6 (Homo sapiens, UniProt P10635);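 also: CYP2D6 member of a cytochrome P450 panel assay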
Sequence of Cytochrome P450 2D6 (P10635 whole entry): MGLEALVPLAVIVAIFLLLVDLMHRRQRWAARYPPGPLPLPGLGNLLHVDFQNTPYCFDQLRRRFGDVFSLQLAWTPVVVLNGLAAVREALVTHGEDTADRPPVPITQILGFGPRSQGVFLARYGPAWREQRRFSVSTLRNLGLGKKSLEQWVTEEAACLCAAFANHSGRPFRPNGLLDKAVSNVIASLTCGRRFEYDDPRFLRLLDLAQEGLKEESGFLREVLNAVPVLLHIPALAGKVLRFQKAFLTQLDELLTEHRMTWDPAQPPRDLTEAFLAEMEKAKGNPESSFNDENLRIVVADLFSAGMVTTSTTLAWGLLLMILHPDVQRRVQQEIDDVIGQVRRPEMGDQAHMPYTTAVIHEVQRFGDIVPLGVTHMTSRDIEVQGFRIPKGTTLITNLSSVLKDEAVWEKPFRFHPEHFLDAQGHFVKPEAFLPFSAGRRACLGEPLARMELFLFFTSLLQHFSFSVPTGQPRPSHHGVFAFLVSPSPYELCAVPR

Cytochrome P450 2C9 = Cytochrome P450 2C9 (Homo sapiens, UniProt P11712)
Sequence of Cytochrome P450 2C9 (P11712 whole entry): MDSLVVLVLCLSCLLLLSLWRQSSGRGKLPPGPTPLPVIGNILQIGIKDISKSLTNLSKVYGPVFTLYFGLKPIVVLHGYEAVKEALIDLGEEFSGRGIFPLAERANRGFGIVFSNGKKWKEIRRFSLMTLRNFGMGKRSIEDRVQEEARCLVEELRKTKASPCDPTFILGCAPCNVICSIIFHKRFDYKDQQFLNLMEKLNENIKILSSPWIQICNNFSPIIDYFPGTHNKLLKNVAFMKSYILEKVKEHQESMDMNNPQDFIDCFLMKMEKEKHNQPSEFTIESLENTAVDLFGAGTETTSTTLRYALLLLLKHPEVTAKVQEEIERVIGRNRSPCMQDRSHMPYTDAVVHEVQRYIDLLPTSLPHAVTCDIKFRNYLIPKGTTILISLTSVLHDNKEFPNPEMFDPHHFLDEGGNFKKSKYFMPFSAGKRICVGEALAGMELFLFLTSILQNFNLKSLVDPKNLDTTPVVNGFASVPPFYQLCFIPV

Sequence of Cytochrome P450 2C19 (P33261 whole entry): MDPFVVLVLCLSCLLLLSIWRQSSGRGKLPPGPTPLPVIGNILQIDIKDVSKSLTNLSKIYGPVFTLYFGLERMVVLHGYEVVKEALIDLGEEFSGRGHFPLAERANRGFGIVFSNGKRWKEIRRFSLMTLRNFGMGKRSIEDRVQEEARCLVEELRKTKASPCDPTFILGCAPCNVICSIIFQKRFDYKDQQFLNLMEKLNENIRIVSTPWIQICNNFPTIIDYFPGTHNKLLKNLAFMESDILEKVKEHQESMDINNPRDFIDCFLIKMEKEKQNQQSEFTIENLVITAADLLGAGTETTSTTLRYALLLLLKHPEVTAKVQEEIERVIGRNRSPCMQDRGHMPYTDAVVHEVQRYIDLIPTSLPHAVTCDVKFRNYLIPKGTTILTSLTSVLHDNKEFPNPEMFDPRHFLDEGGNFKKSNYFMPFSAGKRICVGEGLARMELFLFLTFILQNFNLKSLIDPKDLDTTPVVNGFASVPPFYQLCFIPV
Sequence of Luciferin 4-monooxygenase (P08659 whole entry): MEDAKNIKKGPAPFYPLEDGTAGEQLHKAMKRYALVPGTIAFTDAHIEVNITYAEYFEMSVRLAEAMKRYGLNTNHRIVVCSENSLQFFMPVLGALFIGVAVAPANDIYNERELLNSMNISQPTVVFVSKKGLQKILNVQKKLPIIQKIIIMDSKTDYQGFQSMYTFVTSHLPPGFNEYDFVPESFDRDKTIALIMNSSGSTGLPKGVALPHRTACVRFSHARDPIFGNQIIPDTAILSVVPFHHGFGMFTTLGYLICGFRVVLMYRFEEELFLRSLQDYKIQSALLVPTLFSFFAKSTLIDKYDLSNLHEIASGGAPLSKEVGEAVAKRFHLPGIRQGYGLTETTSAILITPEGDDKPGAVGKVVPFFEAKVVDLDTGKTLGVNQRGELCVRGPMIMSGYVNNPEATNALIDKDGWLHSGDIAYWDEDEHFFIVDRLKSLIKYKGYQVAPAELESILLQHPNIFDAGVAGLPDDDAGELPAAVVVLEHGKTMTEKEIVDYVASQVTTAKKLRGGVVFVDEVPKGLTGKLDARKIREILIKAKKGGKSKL

## CC(=O)COc1ccc2c(C)c(C)c(=O)oc2c1
Cytochrome P450 2C19; read-out: AC50
  AC50: 0.178 µM (inconclusive)

## O=[N+]([O-])c1cc([As](=O)(O)O)ccc1O [ROXARSONE]
Cytochrome P450 2C19
  AC50: inconclusive

## Cc1cccc(N(C)C(=O)c2cc3c(O)nc4ccc(C)cc4c3s2)c1
[1]
  EC50: > 112 µM (not active)
[2]
  AC50: 0.394 µM (active)
[3]
  EC50: 70.7 µM (active)

## N[C@@H](CCCCP(=O)(O)O)C(=O)O
Cytochrome P450 1A2
  AC50: 31.6 µM (inconclusive)

## CC1=CC(C)(C)n2c(O)c(N=N)c3c(C)c(C)cc1c32
Streptokinase A
  EC50: 16.3 µM (active)
[4]
  EC50: 8.93 µM (active)
Streptococcus
  EC50: > 150 µM (not active)

## O=C(c1coc2ccccc2c1=O)N1CCN(c2cccc(C(F)(F)F)c2)CC1
Cytochrome P450 3A4
  AC50: 22.4 µM (inconclusive)

## COc1ccc(-c2ccc(CN3C(C)C(=O)N(Cc4cn(Cc5ccco5)nn4)CCS3(=O)=O)cc2)cc1 (configuration not stated)
[5]
  EC50: > 53 µM (inactive)
[6]
  IC50: > 47.1 µM (inactive)

## CC(OC(=O)c1cccs1)C(=O)NC1CCCCC1C (configuration not stated)
[2]
  AC50: > 195 µM (inactive)

## COc1ccc(-c2nc3cnc(N(C)C)nc3n(CCc3ccccc3)c2=O)cc1
Cytochrome P450 1A2
  AC50: 1.26 µM (inconclusive)

## O=C(O)c1ccc(N2CCCCS2(=O)=O)cc1
Streptokinase A
  EC50: > 150 µM (not active)
[4]
  EC50: > 150 µM (not active)
Streptococcus
  EC50: > 150 µM (not active)

## N[C@@]1(C(=O)O)CN[C@H](C(=O)O)C1
Cytochrome P450 1A2
  AC50: 31.6 µM (inconclusive)

## CCC(=O)Nc1nc2ccccc2n1Cc1ccccc1C
Streptokinase A
  EC50: > 150 µM (not active)
[4]
  EC50: 2.29 µM (active)
Streptococcus
  EC50: > 150 µM (not active)

## CCN(CC)CCNC(=O)COc1ccc(OC)cc1 [MEFEXAMIDE]
Cytochrome P450 2D6
  AC50: 12.6 µM (inconclusive)
Cytochrome P450 1A2
  AC50: 12.6 µM (inconclusive)

## CN(N=O)c1cc(O)ccc1O [DEPHOSTATIN]
Cytochrome P450 2C19; read-out: AC50
  AC50: 25.1 µM (inconclusive)
Cytochrome P450 2C9
  AC50: 10 µM (inconclusive)
Cytochrome P450 2D6
  AC50: 31.6 µM (inconclusive)
Cytochrome P450 1A2
  AC50: 31.6 µM (inconclusive)

## O=C(O)c1cc2cc(Cl)ccc2oc1=O
Cytochrome P450 2C9
  AC50: 0.00562 µM (inconclusive)
Cytochrome P450 1A2
  AC50: 0.0251 µM (inconclusive)

## O=C(Nc1cc(Br)ccc1O)c1cc(-c2ccc3c(c2)OCO3)on1
[5]
  EC50: > 53 µM (inactive)
[6]
  IC50: > 47.1 µM (inactive)

## CC1CCN(c2nc(N3CCCCC3)nc(N3CCCCC3)n2)CC1
Streptokinase A
  EC50: 33.2 µM (active)
[4]
  EC50: 13.7 µM (active)
Streptococcus
  EC50: > 150 µM (not active)

## Cn1c(=O)c2c(nc(N3CCN(c4ccccn4)CC3)n2Cc2ccc(Cl)cc2Cl)n(C)c1=O
Cytochrome P450 3A4
  AC50: 2.24 µM (inconclusive)

## COc1cc2c(cc1OC)CN(CC(=O)Nc1ccc3c(c1)OCO3)CC2
Cytochrome P450 2C19; read-out: AC50
  AC50: 22.4 µM (inconclusive)
Cytochrome P450 2C9
  AC50: 14.1 µM (inconclusive)
Cytochrome P450 1A2
  AC50: 20 µM (inconclusive)

## Cc1cc(C)c2c(SCc3ccc(Cl)cc3Cl)nc(N)nc2n1
Cytochrome P450 2C19; read-out: AC50
  AC50: 1 µM (inconclusive)

## N=C(N)N/N=C(/c1ccccc1)c1ccc(O)cc1O
Cytochrome P450 3A4
  AC50: 3.98 µM (inconclusive)

## CCCCCCCCCOC(=O)C[n+]1csc(CCO)c1C
[5]
  EC50: > 53 µM (inactive)
[6]
  IC50: > 47.1 µM (inactive)
